From US20250346585A1 (Alexion Pharmaceuticals, Inc., priority 2022, published 2025)

Each molecule was assayed against Human complement C1s enzyme (Homo sapiens (Human), UniProt P09871) (assay: Human C1s enzyme assay). Conditions: Human C1s enzyme assay of Example 3; read-out: IC50 (Stars).
Sequence of Human complement C1s enzyme (P09871 438-688 limits assumed): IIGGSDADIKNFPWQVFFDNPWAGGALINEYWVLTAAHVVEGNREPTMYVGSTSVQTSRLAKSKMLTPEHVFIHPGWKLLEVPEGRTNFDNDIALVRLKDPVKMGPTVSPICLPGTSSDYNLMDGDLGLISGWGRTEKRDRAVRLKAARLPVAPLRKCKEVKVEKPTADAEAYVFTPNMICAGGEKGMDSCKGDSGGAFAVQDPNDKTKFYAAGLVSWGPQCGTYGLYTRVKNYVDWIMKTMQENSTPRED
Sequence of Human complement C1s enzyme (P09871 16-437 partner limits assumed): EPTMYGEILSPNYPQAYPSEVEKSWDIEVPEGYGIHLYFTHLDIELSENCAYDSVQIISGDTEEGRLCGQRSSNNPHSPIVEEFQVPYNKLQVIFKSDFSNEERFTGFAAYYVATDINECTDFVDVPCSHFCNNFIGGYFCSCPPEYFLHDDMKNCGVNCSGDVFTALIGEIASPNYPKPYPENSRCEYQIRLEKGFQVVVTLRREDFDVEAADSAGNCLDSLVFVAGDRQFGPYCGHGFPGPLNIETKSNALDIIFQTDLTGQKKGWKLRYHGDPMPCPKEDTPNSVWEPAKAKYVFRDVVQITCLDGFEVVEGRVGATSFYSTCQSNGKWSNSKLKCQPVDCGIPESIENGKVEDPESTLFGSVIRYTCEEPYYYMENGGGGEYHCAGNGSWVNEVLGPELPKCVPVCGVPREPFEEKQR
Assay type: biochemical
Method in brief: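 IC50 derived by nonlinear regression of rate versus concentration, with rate taken from A405 kinetics (30 s intervals, 30 min) after adding 100 μM each Z-L-Lys-SBzl and DTNB. C1s from human serum, 1.16 nM, exposed to compound for 5 min at RT beforehand; buffer 50 mM Tris, 1 M NaCl, pH 7.5.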
Work on `COC[C@@]1(F)C[C@@H](C(=O)N[C@H](C)c2cc(C(=N)N)cs2)N(C(=O)CNC(=O)c2ccc3c(c2)-c2ccccc2C3(F)F)C1` [Compound 20, (2S,4R)—N—((R)-1-(4-carbamimidoylthiophen-2-yl)ethyl)-1-((9,9-difluoro-9H-fluorene-3-carbonyl)glycyl)-4-fluoro-4-(methoxymethyl)pyrrolidine-2-carboxamide] yielded an IC50 of less than 100 nM.
`C[C@@H](NC(=O)[C@@H]1CC2(CN1C(=O)CNC(=O)c1ccc(-c3ccc(F)cc3)cc1)OCCO2)c1cc(C(=N)N)cs1` [Compound 101, (S)—N—((R)-1-(4-carbamimidoylthiophen-2-yl)ethyl)-7-((4′-fluoro-[1,1′-biphenyl]-4-carbonyl)glycyl)-1,4-dioxa-7-azaspiro[4.4]nonane-8-carboxamide] gave an IC50 of less than 100 nM.
Molecule `N=C(N)c1csc(CNC(=O)[C@@H]2CC3(CN2C(=O)CNC(=O)c2ncc(-c4ccccc4)cc2F)OCCO3)c1` [Compound 105, (S)—N-((4-carbamimidoylthiophen-2-yl)methyl)-7-((3-fluoro-5-phenylpicolinoyl)glycyl)-1,4-dioxa-7-azaspiro[4.4]nonane-8-carboxamide] has an IC50 of less than 100 nM.
For `C[C@@H](NC(=O)[C@@H]1CC2(CN1C(=O)CNC(=O)c1cccc(-c3ccccc3)c1)OCCO2)c1cc(C(=N)N)cs1` [Compound 109, (S)-7-(([1,1′-biphenyl]-3-carbonyl)glycyl)-N—((R)-1-(4-carbamimidoylthiophen-2-yl)ethyl)-1,4-dioxa-7-azaspiro[4.4]nonane-8-carboxamide], the IC50 was less than 100 nM.
`C[C@@H](NC(=O)[C@@H]1CC2(CN1C(=O)CNC(=O)c1ccc(-c3ccc(Cl)cc3F)cc1)OCCO2)c1cc(C(=N)N)cs1` [Compound 174, (S)—N—((R)-1-(4-carbamimidoylthiophen-2-yl)ethyl)-7-((4′-chloro-2′-fluoro-[1,1′-biphenyl]-4-carbonyl)glycyl)-1,4-dioxa-7-azaspiro[4.4]nonane-8-carboxamide] was tested, and the IC50 was less than 100 nM.
In the case of `COC[C@H]1C[C@@H](C(=O)N[C@H](C)c2cc(C(=N)N)cs2)N(C(=O)CNC(=O)c2ccc3c(c2)-c2ccccc2C3(F)F)C1` (relative stereo) [Compound 117, (2S,4S*)—N—((R)-1-(4-carbamimidoylthiophen-2-yl)ethyl)-1-((9,9-difluoro-9H-fluorene-3-carbonyl)glycyl)-4-(methoxymethyl)pyrrolidine-2-carboxamide], the IC50 is reported as less than 100 nM.
`C[C@@H](NC(=O)[C@@H]1C[C@H](C2CCCCC2)CN1C(=O)CNC(=O)c1ccc2c(c1)-c1ccccc1C2(F)F)c1cc(C(=N)N)cs1` [Compound 98, (2S,4R)—N—((R)-1-(4-carbamimidoylthiophen-2-yl)ethyl)-4-cyclohexyl-1-((9,9-difluoro-9H-fluorene-3-carbonyl)glycyl)pyrrolidine-2-carboxamide] was tested, and the IC50 was less than 100 nM.
`C[C@@H](NC(=O)[C@@H]1C[C@]2(C)C[C@@H]2N1C(=O)CNC(=O)c1ccc2c(c1)C(F)(F)c1ccccc1-2)c1cc(C(=N)N)cs1` [Compound 121, (1S,3S,5S)—N-[(1R)-1-(4-carbamimidoylthiophen-2-yl)ethyl]-2-{2-[(9,9-difluorofluoren-2-yl)formamido]acetyl}-5-methyl-2-azabicyclo[3.1.0]hexane-3-carboxamide] was tested, and the IC50 was less than 100 nM.
With `C[C@@H](NC(=O)[C@@H]1C[C@]2(COCCN)C[C@@H]2N1C(=O)CNC(=O)c1ccc(Oc2ccc(F)cc2)cc1)c1cc(C(=N)N)cs1` [Compound 69, (1S,3S,5R)-5-((2-aminoethoxy)methyl)-N—((R)-1-(4-carbamimidoylthiophen-2-yl)ethyl)-2-((4-(4-fluorophenoxy)benzoyl)glycyl)-2-azabicyclo[3.1.0]hexane-3-carboxamide] the IC50 was less than 100 nM.

Same assay, conditions: Human complement C1s enzyme 1.16 nM, substrate Z-L-Lys-SBzl 100 μM, assay of Example 3; read-out: IC50 (Stars)
With `COC[C@@]1(F)C[C@@H](C(=O)N[C@H](C)c2cc(C(=N)N)cs2)N(C(=O)CNC(=O)c2cccc(-c3ccc(F)cc3)c2)C1` [Compound 364, (2S,4R)—N—((R)-1-(4-carbamimidoylthiophen-2-yl)ethyl)-4-fluoro-1-((4′-fluoro-[1,1′-biphenyl]-3-carbonyl)glycyl)-4-(methoxymethyl)pyrrolidine-2-carboxamide] the IC50 was less than 100 nM.
In the case of `COC(=O)/N=C(/N)c1csc([C@@H](C)NC(=O)[C@@H]2C[C@](F)(CF)CN2C(=O)CNC(=O)c2ccc3c(c2)-c2ccccc2C3(F)F)c1` [Compound 250, methyl ((E)-amino(5-((R)-1-((2S,4R)-1-((9,9-difluoro-9H-fluorene-3-carbonyl)glycyl)-4-fluoro-4-(fluoromethyl)pyrrolidine-2-carboxamido)ethyl)thiophen-3-yl)methylene)carbamate], the IC50 is reported as less than 100 nM.
`C[C@@H](NC(=O)[C@@H]1CC2(CN1C(=O)CNC(=O)c1ccc3cc4ccccc4nc3c1)OCCO2)c1cc(C(=N)N)cs1` [Compound 331, (S)-7-((acridine-3-carbonyl)glycyl)-N—((R)-1-(4-carbamimidoylthiophen-2-yl)ethyl)-1,4-dioxa-7-azaspiro[4.4]nonane-8-carboxamide] showed an IC50 of less than 100 nM.
`C[C@@H](NC(=O)[C@@H]1CC2(CN1C(=O)CNC(=O)c1ccc3sc4ccccc4c3c1)OCCO2)c1cc(C(=N)N)cs1` [Compound 254, (S)—N—((R)-1-(4-carbamimidoylthiophen-2-yl)ethyl)-7-((dibenzo[b,d]thiophene-2-carbonyl)glycyl)-1,4-dioxa-7-azaspiro[4.4]nonane-8-carboxamide] showed an IC50 of less than 100 nM.
For `C[C@@H](NC(=O)[C@@H]1CC(=C(F)F)CN1C(=O)CNC(=O)c1ccc2c(c1)-c1ccccc1C2(F)F)c1cc(C(=N)N)cs1` [Compound 270, (S)—N—((R)-1-(4-carbamimidoylthiophen-2-yl)ethyl)-1-((9,9-difluoro-9H-fluorene-3-carbonyl)glycyl)-4-(difluoromethylene)pyrrolidine-2-carboxamide], the IC50 was less than 100 nM.
`C[C@@H](NC(=O)[C@@H]1C[C@](F)(CF)CN1C(=O)CNC(=O)c1ccc2c(c1)C(F)(F)c1ccccc1-2)c1cc(C(=N)N)cs1` [Compound 263, (2S,4R)—N—((R)-1-(4-carbamimidoylthiophen-2-yl)ethyl)-1-((9,9-difluoro-9H-fluorene-2-carbonyl)glycyl)-4-fluoro-4-(fluoromethyl)pyrrolidine-2-carboxamide] showed an IC50 of less than 100 nM.
`CS(=O)(=O)[C@@H]1C[C@@H](C(=O)N[C@H](CO)c2cc(C(=N)N)cs2)N(C(=O)CNC(=O)c2ncc(-c3ccccc3)cc2F)C1` [Compound 383, N-(2-((2S,4R)-2-(((R)-1-(4-carbamimidoylthiophen-2-yl)-2-hydroxyethyl)carbamoyl)-4-(methylsulfonyl)pyrrolidin-1-yl)-2-oxoethyl)-3-fluoro-5-phenylpicolinamide] showed an IC50 of less than 100 nM.
In the case of `CO[C@@H]1C[C@@H](C(=O)N[C@H](C)c2cc(C(=N)N)cs2)N(C(=O)CNC(=O)c2ccc3oc4ccccc4c3c2)C1` [Compound 221, (2S,4R)—N—((R)-1-(4-carbamimidoylthiophen-2-yl)ethyl)-1-((dibenzo[b,d]furan-2-carbonyl)glycyl)-4-methoxypyrrolidine-2-carboxamide], the IC50 is reported as less than 100 nM.
`N=C(N)c1csc(CNC(=O)[C@@H]2CC3(CN2C(=O)CNC(=O)c2ccc(-c4ccc(F)nc4)cc2)OCCO3)c1` [Compound 209, (S)—N-((4-carbamimidoylthiophen-2-yl)methyl)-7-((4-(6-fluoropyridin-3-yl)benzoyl)glycyl)-1,4-dioxa-7-azaspiro[4.4]nonane-8-carboxamide] was tested, and the IC50 was less than 100 nM.
